We go through one compound from patent US6979687B1, “Theophylline-based soluble guanylyl cyclase activators KMUP-1 analogues enhanced cyclic GMP and K+ channel activities on rabbit corpus cavernosum smooth muscle and intercavernous pressure activities” (Cho-Jan Liang, priority 2002, dated 2005).

The test system of test [1] is rabbit corpus cavernosum smooth muscle. Description: Rabbit corpus cavernosum smooth muscle relaxation, organ bath. It counts as cell-based.
Description: (§1) Disruption of endothelium The endothelium lining the lacunar spaces of rabbit corpus cavernosum was disrupted and/or removed by detergent treatment using a modification of a protocol for blood vessels, described elsewhere (kim N. et al., J. Clin. Invest., 88, 112–118, 1991). The intact, isolated penis was placed in a tray containing chilled physiological salt solution (PSS). A 21-guage minicatheter was inserted into each corporal body at the proximal end of the penis. A third minicatheter was inserted into the distal end, below the glans penis, where the right and left corpora communicate. While the distal and one proximal minicatheter were clamped, 3 ml of CHAPS (wt vol.^−) in saline was infused into the remaining proximal catheter. After a short interval (˜20 s), the clamped minicatheters were opened and the preparation was washed by infusion of saline. The corpora cavernosa were then removed and tested for endothelial integrity.
Tissue procurement and organ bath experiments Male rabbits were killed with pentobarbital and their penises excised rapidly and cut longitudinally into equal strips to give 3–6 segments. These segments were incubated in Kerbs-bicarbontate solution (NaCl, 118 mM; NaHCO3, 25 mM; KCl, 4.7 mM; KH2PO4, 1.2 mM; MgSO4, 1.2 mM; glucose, 11 mM; CaCl2, 2.5 mM; pH 7.3–7.4) maintained at 37° C. and aerated with 95% O2 and 5% CO2. Isometric tension was recorded with a force displacement transducer (UGO BASILE, Model 7004, Italy). Rabbit corpus cavernosum smooth muscles were stretched to a resting tension of 2 g and then contracted with phenylephrine (PE, 10 μM). Tissues were also treated with guanethidine (10 μM) to block contractions caused by noradrenaline, released from adrenergic neuron, and treated with atropine (1 μM) to prevent muscarinic effects caused by acetylcholine. When the stable constriction to phenylephrine was reached, concentration-response curves to KMUP-1 (0.001–10 μM) were constructed. Data were expressed as a percentage of the maximum contractile response to phenylephrine. To examine the possible action mechanisms of KMUP-1, the rabbit corpus cavernosum smooth muscles were pretreated with sGC (soluble guanylyl cyclase) inhibitors ODQ (1 μM), a NOS (nitric oxide synthase) inhibitor L-NAME (100 μM), a K^+ channel blocker Tetraethylammonium (TEA, 10 mM), a KATP channel blocker glibenclamide (1 μM), a voltage-dependent K^+ channel blocker 4-AP (100 μM) and Ca^2+-dpendent K^+ channel blockers apamin (1 μM) and charybdotoxin (0.1 μM) for 30 min prior to the addition of KMUP-1. To observe whether the rabbits corpus cavernosum smooth muscle relaxation of KMUP-1 are affected by a nonselective PDE (phosphodiesterase) inhibitor, we investigated the action of KMUP-1 in the presence of IBMX (0.5 μM). In another experiment, rabbit corpus cavernosum smooth muscles were preconstricted with 60 mM KCl. The KCl solution was prepared by substituting NaCl with KCl (60 mM) in an equimolar amount.
as §1, with “(kim” for “(kim N.”, “al.,” for “al., J. Clin. Invest., 88, 112–118,”, “vol.^−1)” for “vol.^−)”, “integrity. […]” for “integrity.”

In test [2] the test system is PDE (phosphodiesterase) in human platelets. Description: Phosphodiesterase assay, soluble PDE from human platelets, cyclic GMP substrate. It counts as biochemical. Particulars: at 100 μM, n=3.
Description: Phosphodiesterase assay. Human platelets were isolated from whole blood using 50 mM Tris-HCl containg 5 mM MgCl2 (pH 7.5) and centrifuged to prepare platelet rich plasma. Washed human platelets were resuspended in 50 mM Tris-HCl containg 5 mM MgCl2 (pH 7.5). Platelets were then disrupted by sonicatio, and soluble PDE preparation was obtained by ultracentrifugation 105000 g for 60 min (4° C). […] After 20 min at 37° C., the samples were heated to 100° C. for 2 min. Ophiophagus Hannah snake venom (10 mg/ml, 10 μl) was then added and incubated at 37 C. for 10 min to convert the 5-GMP to the unchanged nucleosides, guanosine. An ion-exchange resin (200 μl) was added to bind all uncoverted cyclic GMP. After centrifuging, the supernatant was removed for determination in a liquid scintillation counter.

As to `Cn1c(=O)c2c(ncn2CCN2CCN(c3ccccc3Cl)CC2)n(C)c1=O` [KMUP-1, 7-[2-[4-(2-chlorophenyl)piperazinyl]-ethyl]-1,3-dimethylxanthine], the “relaxant activities in rabbit CCSMs” value in test [1] is listed as “concentration-dependent relaxant activities”. In test [1] (0.001–10 μM, endothelium-denuded), the “relaxation in endothelium-denuded (EC−) corpus cavernosum smooth muscle” value is “concentration-dependent relaxations”. Also, the “−log EC50 of relaxation” value in test [1] (after K+ channel blocker TEA (10 mM)) was found to be 5.37±0.05; in test [1] (after KATP channel blocker glibenclamide (1 μM)), 6.57±0.15; in test [1] (after NOS inhibitor L-NAME (100 μM)) it was 6.51±0.08; in test [1] (after apamin (1 μM)), 5.85±0.11; in test [1] (after charybdotoxin (0.1 μM)), 5.63±0.09; in test [1] (after sGC inhibitor ODQ (1 μM)), 6.79±0.12. The “−log EC50 of relaxation” value was determined as 5.83±0.17 in test [1] (after voltage-dependent K+ channel blocker 4-AP (100 μM)); 7.19±0.09 in test [1] (endothelium-intact (EC+), phenylephrine (10 μM)-precontracted, no blocker); 8.65±0.14 in test [1] (in the presence of IBMX (0.5 μM)). Also, the “relaxation of corpus cavernosum smooth muscle strips” value in test [1] (at 10 μM) is on record as “completely relaxed”. In addition, the “effect of combination with IBMX on CCSMs relaxations” value in test [1] (combination with IBMX) is listed as “additive effect”. Besides, the “relaxation in the presence of high K+” value in test [1] (high K+ (60 mM), 0.001–10 μM) was “great reduction of relaxation”. Also, in test [2], the “inhibition of PDE activity” value is recorded as 29±3.1%.
